Laboratory results as given in patent US9505729B2, “Isoxazole analogs as mediators of transcriptional induction of E-cadherin” (Vanderbilt University, priority 2014, dated 2016).

Test system: E-cadherin expression in SW620 cells
Test: In-cell Western (ICW) cell-based functional assay of E-cadherin expression in SW620 cells
Conditions: Homo sapiens, SW-620; for fold induction at 10 µM: change in expression level of E-cadherin in response to 10 μM compound, SW620 cells, 24 hours; for EC50: inducement of E-cadherin expression in SW620 cells
Protocol: SW620 and H520 cells (5×10^4/100 μL) were seeded in a 96-well plate prior to treatment. Cells were treated with 10 μM concentration of synthesized compound in quadruplicate for 24 hours in RPMI 1640 supplemented medium and 100 μg/mL penicillin-streptomycin. The cells were then fixed with 100% methanol for 20 minutes at 4° C. The wells were then washed 2 times with PBS, permeabilized in 2% bovine serum albumin (BSA) and 0.2% TritonX-100 in PBS for 30 minutes at room temperature with gentle agitation, and blocked in LI-COR blocking buffer for 30 minutes at room temperature with gentle agitation. The cells were then incubated with the following primary antibodies: anti-E-Cadherin (1:500) and anti-α-Tubulin (1:1000) diluted in blocking buffer (1:1 dilution in PBS) for 2 hours at room temperature with gentle agitation. The cells were washed 4 times in PBS-T for 5 minutes each, and then incubated with the following secondary antibodies conjugated to a fluorescent entity: IRDye 800-conjugated goat anti-rabbit IgG (1:1000) and IRDye-700-conjugated goat anti-mouse IgG (1:2000) in blocking buffer (1:1 dilution in PBS) with gentle agitation for 1 h at room temperature. The cells were washed 4 times in PBS-T for 5 minutes each followed by a single wash with PBS. All liquid was removed from the wells and the plates were visualized and analyzed on the Odyssey IR imaging system (LI-COR Biosciences).
The assay was further optimized in the following manner. The cells were washed 2 times with PBS, fixed in 100% methanol at room temperature for 15 minutes, and again washed 2 times with PBS. The cells were then incubated with the following primary antibodies: anti-E-Cadherin (1:200) and anti-α-Tubulin (1:2000) diluted in ice cold 2% bovine serum albumin (BSA) and 0.2% TritonX-100 in PBS for 1 hour at room temperature with gentle agitation. The cells were washed 2 times in PBS and then incubated with the following secondary antibodies conjugated to a fluorescent entity: Licor 800-conjugated goat anti-rabbit IgG (1:2000) and IRDye-700-conjugated goat anti-mouse IgG (1:2000) in ice cold 2% BSA and 0.2% TritonX-100 in PBS with gentle agitation for 45 minutes at room temperature. The wells were washed 2 times in PBS, dried, and analyzed as previously mentioned.
N-(3-(Arylamino)alkyl)-5-arylisoxazole-3-carboxamide analogs were synthesized as described above. Changes in expression level of E-cadherin in response to 10 μM compound in SW620 cells was determined in the cell-based functional assay as described above, and the data are shown in Table II. The compound number corresponds to the compound numbers used in Table I.
EC50 of inducement of E-cadherin expression in SW620 cells was determined in the cell-based functional assay as described above, and the data are shown in Table III. The compound number corresponds to the compound numbers used in Table I.

O=C(NCCCNc1nccc(Cl)n1)c1cc(-c2ccccc2)[nH]n1 [Compound 38, N-(3-((4-chloropyrimidin-2-yl)amino)propyl)-5-phenyl-1H-pyrazole-3-carboxamide]
fold induction at 10 µM: 7.36 | EC50: 22.9 µM

[N-]=[N+]=Nc1ccnc(NCCCNC(=O)c2cc(-c3ccccc3)[nH]n2)n1 [Compound 39, N-(3-((4-azidopyrimidin-2-yl)amino)propyl)-5-phenyl-1H-pyrazole-3-carboxamide]
fold induction at 10 µM: 15.9 | EC50: 5.32 µM
